According to patent US6096770A, “Anthranilic acid analogs” (American Home Products Corporation, priority 1998, dated 2000):
Where two headings read alike, the source gives them in different places.

Experiments:
[1] = tested on: Isolated Rat Bladder Strips; test: Inhibition of Contractions in Isolated Rat Bladder Strips (15 mM KCl-enhanced contractile activity); format: tissue-based, Sprague-Dawley rats; conditions: for IC50: 0.5 h, 15 mM KCl, 37 deg. C., pH 7.4, 30 minute challenge, read-out: IC50 Bladder (B): concentration required to elicit 50% inhibition of pre-drug contractile activity
Description: Sprague-Dawley rats (150-200 g) are rendered unconscious by CO2 asphyxiation and then euthanized by cervical dislocation. […] The bladder is opened and then cut into strips 1-2 mm in width and 7-10 mm in length. The strips are subsequently suspended in a 10 mL tissue bath under an initial resting tension of 1.5 g. The strips are held in place by two surgical clips one of which is attached to a fixed hook while the other is attached to an isometric force transducer. […] The carbachol is then washed out and the tissue allowed to relax to its resting level of activity. Following a further 30 min period of recovery an additional 15 mM KCl are introduced into the tissue bath. […] Following stabilization of this enhanced level of contractile activity, incremental increases in the concentration of test compound or vehicle are introduced into the tissue bath. Contractile activity is measured for each compound or vehicle concentration during the last minute of a 30 minute challenge.

Aorta = test: Inhibition of contractions in aorta (indication of selectivity, Table I); format: cell-based; conditions: for IC50 (A)/IC50 (B): selectivity ratio aorta / bladder

O=C([O-])c1ccccc1NC(=O)c1ncoc1-c1ccc(C(F)(F)F)cc1.[Li+] [Example 3, 2-{[5-(4-Trifluoromethyl-phenyl)-oxazole-4-carbonyl]-amino}-benzoic acid lithium salt]
IC50 ([1]; Rattus norvegicus, pH 7.4, isolated rat bladder strips): 17.5 ± 12.4 µM
IC50 (Aorta): 7.35 ± 0.25 µM
IC50 (A)/IC50 (B) (Aorta): 0.42

Cc1noc(-c2ccc(C(F)(F)F)cc2)c1C(=O)Nc1ccccc1C(=O)O [Example 4, 2-{[3-Methyl-5-(4-trifluoromethyl-phenyl)-isoxazole-4-carbonyl]-amino}-benzoic acid]
IC50 ([1]; isolated rat bladder strips): 11.9 ± 3.95 µM

O=C(O)c1ccccc1NC(=O)c1ncoc1-c1ccc(C(F)(F)F)cc1 [Example 2, 2-{[5-(4-Trifluoromethyl-phenyl)-oxazole-4-carbonyl]-amino}-benzoic acid]
IC50 ([1]; isolated rat bladder strips): 17.9 ± 5.8 µM

COc1ccc(/C=C/C(=O)Nc2ccccc2C(=O)O)cc1OC [Tranilast, reference compound]
potency and bladder selectivity as smooth muscle relaxant (in words) ([1]; in vitro, Table 1): not to be a potent or bladder selective smooth muscle relaxant
IC50 (A)/IC50 (B) (Aorta): 1.08

O=C(Nc1ccccc1C(=O)O)C1=C(c2ccc(C(F)(F)F)cc2)CCC1 [Example 1, 2-{[2-(4-Trifluoromethyl-phenyl)-cyclopent-1-enecarbonyl]-amino}-benzoic acid]
IC50 ([1]; isolated rat bladder strips): 11 ± 4.04 µM
